Experimental data as given in patent publication US20250331521A1, “NITROGEN-CONTAINING HETEROCYCLIC COMPOUND HAVING AN OXIME GROUP, AGRICULTURAL OR HORTICULTURAL HERBICIDE COMPRISING THE COMPOUND, AND METHOD FOR USING THE COMPOUND OR THE HERBICIDE” (NIHON NOHYAKU CO., LTD., priority 2022, published 2025).

Test system: Barnyard grass (Echinochloa crus-galli)
Experiment: Test Example 1: post-emergence herbicidal effect against paddy weeds
Assay type: in vivo
Conditions: 144 h, active ingredient concentration 10 ppm, drop treatment in hydroponic medium, 30° C., full light, six days after treatment, compared to non-treatment group, read-out: herbicidal effect against barnyard grass (score, degree of growth inhibition)
Protocol: Test Example 1: Test for Post-Emergence Herbicidal Effect Against Paddy Weeds Barnyard grass (Echinochloa crus-galli) was seeded and grown in test tubes containing hydroponic medium in an artificial climate chamber or a phytotron. Agrochemical formulations containing the compounds of the present invention as active ingredients prepared according to Formulation Example 1 were separately diluted with water so that the concentration of the active ingredient would be a predetermined concentration and used for drop treatment of the barnyard grass. The barnyard grass was grown in the artificial climate chamber at 30° C. under full light conditions. Six days after agrochemical treatment, the herbicidal effect was evaluated as compared to the non-treatment group according to the following criteria. Criteria for Herbicidal Effect (Degree of Growth Inhibition) and Phytotoxicity • Score 4 90% to 100% herbicidal effect • Score 3 70% to 89% herbicidal effect • Score 2 40% to 69% herbicidal effect • Score 1 1% to 39% herbicidal effect • Score 0 0% herbicidal effect

SMILES | inhibition at 10 ppm
CCO/N=C(\N)c1ccc(C(=O)OCC)c(-c2nn(-c3ccccc3)c(=O)n2C)n1 [Compound No. 5-3, (Z)-ethyl 6-(N′-ethoxycarbamimidoyl)-2-(4-methyl-5-oxo-1-phenyl-4,5-dihydro-1H-1,2,4-triazol-3-yl)nicotinate] | 70 to 89%
CCO/N=C(\N)c1ccc(S(C)(=O)=O)c(-c2nn(-c3ccccc3[N+](=O)[O-])nc2C)n1 [Compound No. 11-95, (Z)-N′-ethoxy-6-(5-methyl-2-(2-nitrophenyl)-2H-1,2,3-triazol-4-yl)-5-(methylsulfonyl)picolinimidamide] | 70 to 89%
CCO/N=C(\N)c1ccc(C(=O)OCC)c(-c2nc(-c3ccccc3)sc2C)n1 [Compound No. 7-1, (Z)-ethyl 6-(N′-ethoxycarbamimidoyl)-2-(5-methyl-2-phenylthiazol-4-yl)nicotinate] | 70 to 89%
CCO/N=C(\N)c1ccc(S(=O)(=O)NC)c(-c2nc(-c3ccccc3)cn2C)n1 [Compound No. 2-33, (Z)-N′-ethoxy-6-(1-methyl-4-phenyl-1H-imidazol-2-yl)-5-(N-methylsulfamoyl)picolinimidamide] | 70 to 89%
CCO/N=C(\N)c1ccc(S(C)(=O)=O)c(-c2nn(-c3ccccc3)cc2C)n1 [Compound No. 10-16, (Z)-N′-ethoxy-6-(4-methyl-1-phenyl-1H-pyrazol-3-yl)-5-(methylsulfonyl)picolinimidamide] | 70 to 89%
CCO/N=C(\N)c1ccc(S(=O)(=O)NC)c(-c2nn(-c3ccccc3)cc2C)n1 [Compound No. 10-2, (Z)-N′-ethoxy-6-(4-methyl-1-phenyl-1H-pyrazol-3-yl)-5-(N-methylsulfamoyl)picolinimidamide] | 70 to 89%
CCO/N=C(\N)c1ccc(S(=O)(=O)NC)c(-n2nc(C)c(-c3ccccc3)n2)n1 [Compound No. 20-17, (Z)-N′-ethoxy-6-(4-methyl-5-phenyl-2H-1,2,3-triazol-2-yl)-5-(N-methylsulfamoyl)picolinimidamide] | 70 to 89%
CCO/N=C(\N)c1ccc(S(=O)(=O)NC)c(-c2csc(-c3ccccc3)n2)n1 [Compound No. 7-18, (Z)-N′-ethoxy-5-(N-methylsulfamoyl)-6-(2-phenylthiazol-4-yl)picolinimidamide] | 70 to 89%
CCO/N=C(\N)c1ccc(S(C)(=O)=O)c(-c2nc(-c3ccccc3)cs2)n1 [Compound No. 8-17, (Z)-N′-ethoxy-5-(methylsulfonyl)-6-(4-phenylthiazol-2-yl)picolinimidamide] | 70 to 89%
CCO/N=C(\N)c1ccc(S(=O)(=O)NC)c(-c2nc(-c3ccccc3)nn2C)n1 [Compound No. 1-4, (Z)-N′-ethoxy-6-(1-methyl-3-phenyl-1H-1,2,4-triazol-5-yl)-5-(N-methylsulfamoyl)picolinimidamide] | 70 to 89%
CCO/N=C(\C)c1ccc(S(C)(=O)=O)c(-n2c(C)nn(-c3ccccc3)c2=O)n1 [Compound No. 6-1, (E)-4-(6-(1-(ethoxyimino)ethyl)-3-(methylsulfonyl)pyridin-2-yl)-3-methyl-1-phenyl-1H-1,2,4-triazol-5(4H)-one] | 70 to 89%
CCO/N=C(\N)c1ccc(S(=O)(=O)NC)c(-n2nc(-c3ccccc3)cc2C)n1 [Compound No. 4-6, (Z)-N′-ethoxy-6-(5-methyl-3-phenyl-1H-pyrazol-1-yl)-5-(N-methylsulfamoyl)picolinimidamide] | 70 to 89%
CCO/N=C(\N)c1ccc(S(=O)(=O)NC)c(-c2nc(-c3ccccc3Cl)nn2C)c1 [Compound No. 17-2, (Z)-3-(3-(2-chlorophenyl)-1-methyl-1H-1,2,4-triazol-5-yl)-N′-ethoxy-4-(N-methylsulfamoyl)benzimidamide] | 70 to 89%
CCO/N=C(\N)c1ccc(S(=O)(=O)NC)c(-n2nc(-c3ccccc3)nc2C)n1 [Compound No. 3-3, (Z)-N′-ethoxy-6-(5-methyl-3-phenyl-1H-1,2,4-triazol-1-yl)-5-(N-methylsulfamoyl)picolinimidamide] | 70 to 89%
CCO/N=C(\N)c1ccc(S(=O)(=O)NC)c(-c2nc(-c3ccccc3)cs2)n1 [Compound No. 8-2, (Z)-N′-ethoxy-5-(N-methylsulfamoyl)-6-(4-phenylthiazol-2-yl)picolinimidamide] | 70 to 89%
